From PMC12662929, “MR2938 relieves DSS-induced colitis in mice through inhibiting NF-κB signaling and improving epithelial barrier” (Marine Life Science & Technology, 2025)

Experiments:
[1] = system: DSS-induced colitis C57BL/6 mice; assay: Acute DSS-induced murine colitis model; type: in vivo, mouse; conditions: for body weight: MR2938 50 or 100 mg/kg or 5-ASA 100 mg/kg, oral
Procedure: After 1 week of acclimation, the C57BL/6 mice were randomly divided into the following groups (n = 6/group): control group, model group (DSS), DSS + 5-aminosalicylic acid (5-ASA, positive group, 100 mg/kg), DSS + MR2938 (100 mg/kg) and DSS + MR2938 (50 mg/kg). Colitis was induced by administration of 3% DSS drinking water for 5 consecutive days. Water consumption was monitored daily. At the same time, the mice in each group were given the corresponding agents: 5-ASA (100 mg/kg) and MR2938 (50 mg/kg or 100 mg/kg). The dosages of 5-ASA and MR2938 were adopted based on previous reports and our pilot trial. MR2938 or 5-ASA was dissolved in a mixture of saline and DMSO (95:5) to provide the desired concentrations.
Changes in bodyweight were assessed daily over the 9-day experimental period. On the last day of the experiment, mice were sacrificed, and the entire colon was excised. Colon length was measured and gently washed with physiological saline. Then two pieces with 0.5 cm in length of the distal section were used for histological assessment and immunofluorescence staining. The remaining colon tissue samples were used to determine MPO activity and the concentrations of cytokines.
Distal colons were harvested, fixed in 4% paraformaldehyde, and embedded in paraffin. Five-μm-thick tissue sections were stained with hematoxylin and eosin (HE) for light microscopic examination using a DP73 light microscope (Olympus, Tokyo, Japan). Colonic mucosa damage score was assessed as previously described. To count colonic goblet cells, fixed colonic tissues were also stained in Alcian blue for 10–15 min and dehydrated with 100% alcohol and xylene, followed by image acquisition on a microscope.
The serum was obtained from the collected blood samples through centrifugation at 3500 g for 15 min at 4 °C. A portion of frozen colon samples was homogenized with RIPA lysis buffer (Solarbio, Beijing, China) to extract total proteins. The homogenate was centrifuged at 12,000 × g at 4 °C for 15 min. The protein contents were quantified using a bicinchoninic acid (BCA) protein assay kit (Solarbio, Beijing, China) according to the manufacturer’s instructions. The concentrations of proinflammatory cytokines IL-1β, IL-6, and TNF-α in the serum and colon tissue were measured by ELISA (Jingmei Biotech, China) according to the manufacturers’ recommendations. MPO activity was measured using a myeloperoxidase assay kit (Jingmei Biotech, China).
(§1) Total RNAs of colon tissues were extracted using tissue RNA kit (Omega Biotek, China) following the manufacturer’s protocol. cDNA was obtained from RNA samples using ReverTra Ace qPCR RT Master Mix with gDNA Remover (TOYOBO, Japan). Quantitative real-time PCR was performed by Applied Biosystems® QuantStudio Q5 instrument (Thermo, USA) with SYBR qPCR Master Mix (Vazyme, China). The relative gene expression was measured and normalized to β-actin expression using 2^−ΔΔCt method.
(§2) For immunofluorescence staining, the frozen colon slides or cells were fixed in 4% paraformaldehyde, permeabilized with 0.1% Triton X-100, blocked non-specific proteins in 5% BSA/PBS for 1 h, and incubated overnight at 4 °C with Occludin, ZO-1 or p65 primary antibodies. The slides were then washed with phosphate buffer (PBS) and incubated with Dylight 488 labeling secondary antibody for 1 h at room temperature. Finally, the colon slides were stained with DAPI for 10 min, and then imaged and captured using ECHO microscope.

[2] = system: NF-κB signaling in Raw264.7 cells; assay: LPS-induced inflammation / NF-κB signaling in Raw264.7 macrophages; type: cell-based
Procedure: Raw264.7 cells and Caco-2 cells were obtained from the Cell Bank of the Chinese Academy of Sciences (Shanghai, China) and cultured in high-glucose DMEM medium supplemented with 10% fetal bovine serum (FBS) at 37 ℃ in a 5% CO2 atmosphere. Raw264.7 cells were seeded and incubated in six-well plates (8 × 10^5 cells/well) overnight, and then treated with different concentrations of MR2938 for 2 h. Then Raw264.7 cells were activated by lipopolysaccharide (LPS, 100 ng/mL, Sigma-Aldrich Co., Shanghai, CN) for 2 h or 6 h for transcription or protein level analysis.
as §1, §2
Total proteins were extracted with RIPA lysis buffer. After determining the protein concentration by the BCA assay kit, an equal amount of protein was subjected to SDS-PAGE and electro-transferred to a PVDF membrane. The membrane was immune detected with specific antibodies overnight at 4 °C. Proteins were quantified by Image J software. The target antibodies against p65, phosphorylated p65, IκBα, p-IκBα, TLR4, NLRP3, caspase-1, IL-1β, and β-actin were purchased from Proteintech or Cell Signaling Technology.

[3] = In vivo PK study in SD rats; conditions: plasma, rat
Procedure: MR2938 was synthesized in-house following previously reported procedure (Lv et al. [2023]), and confirmed by NMR and HPLC chromatography (purity > 95%). To detect the pharmacokinetic characters of MR2938 in the plasma, the SD rats were orally and intravenous (i.v.) administered with MR2938 at a dose of 10 mg/kg and 3 mg/kg, respectively. The vehicle consisted of 10% DMSO, 30% saline, and 60% PEG400. Plasma samples were collected at 5 min, 15 min, 30 min and 1 h, 2 h, 4 h, 6 h, 8 h, 12 h, and 24 h after administration. After analyzing the concentration of MR2938 via LC–MS, the values of Cmax, Tmax, T1/2, Cl, AUClast, and AUCInf were calculated (Hu et al. [2018]). The bioavailability of MR2938 from the p.o. was calculated by comparing the area under the concentration–time curve (AUCInf) for the […] dose and that for the i.v. dose.

NO production = system: NO production; set-up: method as in Lv et al. 2023; conditions: ref Lv et al. 2023; cited from earlier work
Caco-2 cells = assay: LPS-induced tight junction disruption in Caco-2 cells (immunofluorescence); type: cell-based
Procedure: Caco-2 cells were seeded and incubated in 24-well plates (1 × 10^5 cells/well) for 48 h and treated with 10 μmol/L of MR2938 for 2 h. Then 100 ng/mL of LPS was added for 24 h to induce tight function disruption.
as §2

[4] = system: proinflammatory cytokines mRNA; set-up: method as in Lv et al. 2023; conditions: 2.5 μmol/L; ref Lv et al. 2023; cited from earlier work
AChE = system: AChE; set-up: method as in Lv et al. 2023; conditions: ref Lv et al. 2023; cited from earlier work
[5] = Brain permeability in mice after i.p. administration; type: in vivo, mouse; conditions: n=3
Procedure: Table S2. Concentration of MR2938 in brain after its i.p. administration (6.5 mg/kg)

Nc1ccc(O)c(C(=O)O)c1 [5-ASA, 5-aminosalicylic acid, reference compound]
body weight ([1]; 3% DSS): marked improvement

O=C(c1ccc(Nc2nccc(-c3cc4ccccc4s3)n2)cc1)N1CCC(N2CCCC2)CC1 [IKK16, reference compound]
LPS-elevated expression level of NLRP3 ([2]; western blot, NF-κB pathway blocked): obviously decreased

COc1cc(OC)c2c(=O)[nH]c(-c3ccc(N4CCN(C)CC4)cc3)nc2c1 [MR2938]
Occludin and ZO-1 proteins in colon (immunofluorescence), comparison with 5-ASA ([1]; 100 mg/kg): as effective as 5-ASA | mRNA levels of Occludin, ZO-1 and claudin-1 in colon ([1]; 100 mg/kg vs colitis group, no statistical difference): upregulated | colon length (shortening) ([1]; 3% DSS, 100 mg/kg oral, similar to control group, significantly longer than 5-ASA group): greatly relieved | body weight ([1]; 3% DSS): marked improvement | inflammatory cell infiltration, mucosal damage and overall colonic damage score (HE histology) ([1]; 3% DSS, oral administration): obvious attenuation | concentration of MPO in colon ([1]; DSS-induced): slight decrease | concentration of MPO in serum ([1]; DSS-induced): slight decrease | colonic level of IL-1β ([1]; ELISA, colon tissue): decreased | colonic level of TNF-α ([1]; ELISA, colon tissue): decreased | IL-1β in mouse serum ([1]; ELISA, 50 mg/kg and 100 mg/kg): significant decrease | TNF-α in mouse serum ([1]; ELISA, 50 mg/kg and 100 mg/kg): significant decrease | serum IL-6 level ([1]; ELISA, 50 mg/kg group compared with 100 mg/kg group): no statistical difference between the two groups | gene transcription of IL-1β in colon ([1]; RT-qPCR): noticeably inhibited | gene transcription of TNF-α in colon ([1]; RT-qPCR): noticeably inhibited | transcription of IL-6 in colon ([1]; RT-qPCR, 100 mg/kg, compared with 5-ASA): more favorable effects on the transcription of IL-6 than 5-ASA | GPx in colon ([1]; colitis group vs treatment group): no significant difference | Occludin and ZO-1 proteins in colon (immunofluorescence) ([1]; dose-dependent, 50 and 100 mg/kg): partially alleviate the depletion | mucin-secreting goblet cells in colonic epithelia (Alcian blue staining) ([1]; similar to control group): rescued the differentiation of mucin-producing goblet cells | organ indexes of mice ([1]; treatment group vs control groups): no obvious differences | production of MDA in colon ([1]; vs DSS group): significantly suppressed | AUC(0-inf) ([3]; iv, 3 mg/kg i.v., mean n = 3): 1070 ng·h/mL | AUC(0-t) ([3]; iv, 3 mg/kg i.v., mean n = 3): 1060 ng·h/mL | Cmax ([3]; iv, 3 mg/kg i.v., mean n = 3): 1030 ng/mL | half-life ([3]; iv, 3 mg/kg i.v., mean n = 3): 135 min | clearance ([3]; iv, 3 mg/kg i.v., mean n = 3, read-out: Cl (plasma clearance)): 47.2 mL/min/kg | bioavailability ([3]; oral, 10 mg/kg p.o. vs 3 mg/kg i.v., from AUCInf, read-out: F (oral bioavailability)): 59% | AUC(0-inf) ([3]; po, 10 mg/kg p.o., mean n = 3): 2110 ng·h/mL | AUC(0-t) ([3]; po, 10 mg/kg p.o., mean n = 3): 2080 ng·h/mL | Cmax ([3]; po, 10 mg/kg p.o., mean n = 3): 592 ng/mL | Tmax ([3]; po, 10 mg/kg p.o., mean n = 3): 40 min | half-life ([3]; po, 10 mg/kg p.o., mean n = 3): 172 min | NF-κB fluorescence intensity / subcellular location ([2]; 10 μM pre-treatment, LPS activation, immunofluorescence): dropped and was mostly accumulated in the cytoplasm | total p65 ([2]; LPS stimulated, western blot): slightly downregulated | phosphorylation of IκBα and p65 ([2]; LPS stimulated, western blot, dose-dependent): effectively inhibited | expression of TLR4 ([2]; LPS stimulated, decrease did not correlate to concentration): reduced | expressions of IL-1β, NLRP3 and caspase-1 (mRNA and protein) ([2]; qPCR and western blot, vs LPS stimulated): significantly reduced | IC50 (NO production): 3.29 µM | expression of Occludin and ZO-1 (Caco-2 cells; 10 μmol/L, LPS 100 ng/mL stimulated): able to rescue expression levels | Occludin and ZO-1 protein levels (Caco-2 cells; MR2938 alone, without LPS): little changes | mRNA level of proinflammatory cytokines [4]: significantly decreased | IC50 (AChE): 5.04 µM | Amount in brain ([5]; i.p. 6.5 mg/kg (145 μg)): 236.7 ng | Concentration in brain ([5]; i.p. 6.5 mg/kg): 222.07 ng/g
